Measured values published in ChEMBL document CHEMBL1135740, “Design, synthesis, and activity of a novel series of factor Xa inhibitors: optimization of arylamidine groups” (J Med Chem, 2002).
pKi: −log10 of the molar value.

How the values were obtained:
[1] = biological target: Prothrombin (Homo sapiens, UniProt P00734); test: Inhibitory constant against human coagulation factor II (thrombin) for selectivity within coagulation cascade
[2] = biological target: T1, Serine protease 1 (Bos taurus, UniProt P00760); test: Inhibitory constant against bovine trypsin for general specificity against serine proteases
T1 sequence (P00760 whole entry): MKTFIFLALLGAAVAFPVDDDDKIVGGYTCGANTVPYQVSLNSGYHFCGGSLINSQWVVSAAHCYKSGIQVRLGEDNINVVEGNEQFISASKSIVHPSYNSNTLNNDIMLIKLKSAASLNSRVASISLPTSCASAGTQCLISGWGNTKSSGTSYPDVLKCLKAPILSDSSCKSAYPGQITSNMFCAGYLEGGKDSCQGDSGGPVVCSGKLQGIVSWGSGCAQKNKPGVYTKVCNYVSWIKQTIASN

[3] = biological target: Coagulation factor X (Homo sapiens, UniProt P00742); test: Inhibitory constant against human coagulation factor Xa (fXa)
Chain of Coagulation factor X (P00742 41-179 limits assumed): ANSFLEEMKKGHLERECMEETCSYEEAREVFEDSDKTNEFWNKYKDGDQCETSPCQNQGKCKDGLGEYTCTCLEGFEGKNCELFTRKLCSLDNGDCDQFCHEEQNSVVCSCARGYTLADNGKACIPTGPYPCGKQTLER
Chain of Coagulation factor X (P00742 235-488 limits assumed): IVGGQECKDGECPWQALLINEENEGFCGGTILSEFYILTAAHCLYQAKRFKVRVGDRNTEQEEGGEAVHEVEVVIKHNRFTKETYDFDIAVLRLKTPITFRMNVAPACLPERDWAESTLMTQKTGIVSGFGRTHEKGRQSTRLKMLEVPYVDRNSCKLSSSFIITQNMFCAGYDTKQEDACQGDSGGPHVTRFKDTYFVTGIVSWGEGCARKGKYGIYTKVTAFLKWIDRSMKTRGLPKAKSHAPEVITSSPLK

| SMILES | pKi [1] | pKi [2] | pKi [3] |
| --- | --- | --- | --- |
| Cc1c(F)c(Oc2cccc(CC(N)=O)c2)nc(Oc2cccc(C(=N)N)c2)c1F | < 5.30 | < 5.30 | 6.55 |
| Cc1c(F)c(Oc2cccc(C(=N)N)c2)nc(Oc2cccc(C(=O)N3CCN(C)CC3)c2)c1F | – | – | < 5.30 |
| CC(=O)Nc1cccc(Oc2nc(Oc3cccc(C(=N)N)c3)c(F)c(C)c2F)c1 | – | – | 5.24 |
| CN(C)C(=O)c1cccc(Oc2cc(C(=O)O)cc(Oc3cc(C(=N)N)ccc3O)n2)c1 | 6.31 | 6.82 | 8.51 |
| N=C(N)c1ccc(O)c(Oc2cc(C(=O)O)cc(Oc3cccc(NCCN)c3)n2)c1 | 5.47 | 6.46 | 7.11 |
| COc1cc(Oc2nc(Oc3cccc(C(=O)N(C)C)c3)c(F)c(C)c2F)cc(C(=N)N)c1 | – | – | 5.57 |
| Cc1c(F)c(Oc2cccc(C(=O)N(C)C)c2)nc(Oc2cccc(C(=N)N)c2O)c1F | < 5.30 | < 5.30 | < 5.30 |
| Cc1c(F)c(Oc2cccc(C(=N)N)c2)nc(Oc2cccc([S+]([O-])N(C)C)c2)c1F (stereo not given) | < 5.30 | 5.62 | 6.14 |
| Cn1ccnc1-c1cccc(Oc2cc(C(=O)O)cc(Oc3cc(C(=N)N)ccc3O)n2)c1 | – | 6.19 | – |
| COc1c(Oc2nc(Oc3cccc(C(=N)N)c3)c(F)c(C)c2F)cccc1C(=O)N(C)C | – | – | 5.62 |
| Cc1c(F)c(Oc2cccc(Nc3ccccc3)c2)nc(Oc2cccc(C(=N)N)c2)c1F | 5.42 | < 5.30 | 5.74 |
| Cc1c(F)c(Oc2cccc(C(=N)N)c2)nc(Oc2cccc(-n3ccnc3)c2)c1F | < 5.30 | 5.32 | 6.90 |
| Cc1c(F)c(Oc2cccc(C(=N)N)c2)nc(Oc2cccc(C(=O)N3CCCC3)c2)c1F | < 5.30 | 5.55 | 6.66 |
| Cc1c(F)c(Oc2cccc(C(=O)N(C)C)c2)nc(Oc2cc(C(=N)N)ccc2O)c1F | – | – | 8.74 |
| Cc1c(F)c(Oc2cccc(C(=N)N)c2)nc(Oc2cccc(C(=O)N(C)Cc3ccccc3)c2)c1F | – | – | 5.62 |
| COc1ccc(C(=N)N)c(OC)c1Oc1nc(Oc2cccc(N(C)C)c2)c(F)c(C)c1F | – | – | < 5.30 |
| Cc1c(F)c(Oc2cccc(C(=N)N)c2)nc(Oc2cc(O)cc(C(=O)N(C)C)c2)c1F | 6.13 | 5.72 | < 5.30 |
| Cc1c(F)c(Oc2cccc(C(=N)N)c2)nc(Oc2cccc(C(=O)O)c2)c1F | < 5.30 | < 5.30 | 5.30 |
| Cc1c(F)c(Oc2cccc(C(=N)N)c2)nc(Oc2ccc(Cl)c(N(C)C)c2)c1F | 5.28 | 6.00 | 6.30 |
| CCN(CC)c1cccc(Oc2nc(Oc3cccc(C(=N)N)c3)c(F)c(C)c2F)c1 | 6.14 | 5.68 | 6.40 |
| COc1ccc(C(=N)N)cc1Oc1nc(Oc2cccc(N(C)C)c2)c(F)c(C)c1F | – | – | 5.85 |
| Cc1cn(-c2cccc(Oc3cc(C(=O)O)cc(Oc4cc(C(=N)N)ccc4O)n3)c2)cn1 | 6.19 | 6.80 | 7.89 |
| Cc1cn(C)c(-c2cccc(Oc3cc(C(=O)O)cc(Oc4cc(C(=N)N)ccc4O)n3)c2)n1 | 6.06 | 6.33 | 8.08 |
| Cc1ccc(C(=N)N)cc1Oc1nc(Oc2cccc(N(C)C)c2)c(F)c(C)c1F | – | – | 5.92 |

| SMILES | pKi [1] | pKi [2] | pKi [3] |
| --- | --- | --- | --- |
| CCNc1cccc(Oc2nc(Oc3cccc(C(=N)N)c3)c(F)c(C)c2F)c1 | < 5.30 | 5.57 | 6.28 |
| Cc1c(F)c(Oc2cccc(CC(=O)N(C)C)c2)nc(Oc2cccc(C(=N)N)c2)c1F | < 5.30 | 5.38 | 6.34 |
| Cc1c(F)c(Oc2cccc(C(=O)N(C)C)c2)nc(Oc2cc(C(=N)N)ccc2NS(=O)(=O)C(F)(F)F)c1F | – | – | < 5.30 |
| Cc1c(F)c(Oc2cccc(NS(C)(=O)=O)c2)nc(Oc2cccc(C(=N)N)c2)c1F | 5.31 | 5.72 | 5.42 |
| Cc1c(F)c(Oc2cccc(NC(N)=O)c2)nc(Oc2cccc(C(=N)N)c2)c1F | < 5.30 | < 5.30 | 5.40 |
| Cc1c(F)c(Oc2cccc(C(=N)N)c2)nc(Oc2cccc(C(=O)N3CCCCC3)c2)c1F | < 5.30 | 5.52 | 6.09 |
| Cc1c(F)c(Oc2cccc(C(=N)N)c2)nc(Oc2cc(C(=O)N(C)C)cc(C(=O)N(C)C)c2)c1F | < 5.30 | 5.80 | 6.80 |
| Cc1c(F)c(Oc2cccc(Cl)c2)nc(Oc2cccc(C(=N)N)c2)c1F | < 5.30 | – | 5.77 |
| Cc1c(F)c(Oc2cccc(C(=N)N)c2)nc(Oc2cccc([N+](=O)[O-])c2)c1F | < 5.30 | < 5.30 | 5.60 |
| CCOC(=O)c1ccc(N(C)C)cc1Oc1nc(Oc2cccc(C(=N)N)c2)c(F)c(C)c1F | < 5.30 | < 5.30 | < 5.30 |
| Cc1c(F)c(Oc2cccc(C(=N)N)c2)nc(Oc2cccc(C(O)C(N)=O)c2)c1F (stereo not given) | – | – | 6.43 |
| Cc1c(F)c(Oc2cccc(C(=O)N(C)C)c2)nc(Oc2cc(C(=N)N)cc(O)c2O)c1F | 5.92 | 5.96 | 7.64 |
| Cc1c(F)c(Oc2cccc(C(=N)N)c2)nc(Oc2cc(C(=O)N(C)C)cc(O)c2O)c1F | < 5.30 | 5.47 | < 5.30 |
| Cc1c(F)c(Oc2cccc(CC(=O)O)c2)nc(Oc2cccc(C(=N)N)c2)c1F | < 5.30 | < 5.30 | < 5.30 |
| CC(=O)c1cccc(Oc2nc(Oc3cccc(C(=N)N)c3)c(F)c(C)c2F)c1 | < 5.30 | – | 5.85 |
| Cc1c(F)c(Oc2cccc(C(=N)N)c2)nc(Oc2cccc(C(=O)N3CCOCC3)c2)c1F | < 5.30 | < 5.30 | 5.85 |
| COc1cc(Oc2nc(Oc3cccc(C(=O)N(C)C)c3)c(F)c(C)c2F)c(O)c(C(=N)N)c1 | < 5.30 | < 5.30 | < 5.30 |
| Cc1c(F)c(Oc2cccc(CO)c2)nc(Oc2cccc(C(=N)N)c2)c1F | – | – | 5.89 |
| COc1ccc(N(C)C)cc1Oc1nc(Oc2cccc(C(=N)N)c2)c(F)c(C)c1F | 5.66 | < 5.30 | < 5.30 |
| Cc1c(F)c(Oc2cccc(CCC(N)=O)c2)nc(Oc2cccc(C(=N)N)c2)c1F | – | < 5.30 | 6.15 |
| COc1cc(C(=O)N(C)C)cc(Oc2nc(Oc3cccc(C(=N)N)c3)c(F)c(C)c2F)c1OC | – | – | < 5.30 |
| COc1ccc(Oc2nc(Oc3cccc(C(=N)N)c3)c(F)c(C)c2F)cc1C(=O)N(C)C | 5.52 | 6.35 | 5.85 |
| Cc1c(F)c(Oc2cccc(N(C)C)c2)nc(Oc2cc(C(=N)N)ccc2NS(C)(=O)=O)c1F | < 5.30 | < 5.30 | 5.26 |
| COc1ccc(C(=O)N(C)C)cc1Oc1nc(Oc2cccc(C(=N)N)c2)c(F)c(C)c1F | < 5.30 | 5.68 | < 5.30 |

| SMILES | pKi [1] | pKi [2] | pKi [3] |
| --- | --- | --- | --- |
| COc1cc(Oc2nc(Oc3cccc(C(=N)N)c3)c(F)c(C)c2F)cc(C(=O)N(C)C)c1 | < 5.30 | 6.12 | 6.85 |
| Cc1ccc(N(C)C)cc1Oc1nc(Oc2cccc(C(=N)N)c2)c(F)c(C)c1F | < 5.30 | < 5.30 | < 5.30 |
| CC1(C)CNC(c2cccc(Oc3cc(C(=O)O)cc(Oc4cc(C(=N)N)ccc4O)n3)c2)=N1 | < 5.30 | 5.85 | 6.09 |
| Cc1c(F)c(Oc2cccc(O)c2)nc(Oc2cccc(C(=N)N)c2)c1F | – | – | 5.30 |
| COc1ccc(C(=N)N)cc1Oc1nc(Oc2cccc(C(=O)N(C)C)c2)c(F)c(C)c1F | – | – | 6.14 |
| Cc1c(F)c(Oc2cccc(N(C)C)c2)nc(Oc2cc(C(=N)N)ccc2N)c1F | 6.52 | 6.40 | 7.19 |
| Cc1c(F)c(Oc2cccc(C(=N)N)c2)nc(Oc2cccc(N3CCOCC3)c2)c1F | < 5.30 | 5.70 | 6.19 |
| Cc1nccn1-c1cccc(Oc2cc(C(=O)O)cc(Oc3cc(C(=N)N)ccc3O)n2)c1 | 6.17 | 6.24 | 8.10 |
| Cc1c(F)c(Oc2cccc(CN)c2)nc(Oc2cccc(C(=N)N)c2)c1F | < 5.30 | 5.54 | 5.85 |
| Cc1c(F)c(Oc2cccc(C(=N)N)c2)nc(Oc2cc(C(=O)N(C)C)ccc2O)c1F | < 5.30 | 5.43 | < 5.30 |
| Cc1c(F)c(Oc2cccc(C(=N)N)c2)nc(Oc2cccc(C(=O)N(C)C)c2O)c1F | – | – | 5.35 |
| Cc1c(F)c(Oc2cccc(F)c2)nc(Oc2cccc(C(=N)N)c2)c1F | – | – | 5.49 |
| CN(C)c1cccc(Oc2cc(C(=O)O)cc(Oc3cc(C(=N)N)ccc3O)n2)c1 | 6.92 | 6.12 | 7.92 |
| COc1cc(C(=N)N)cc(Oc2nc(Oc3cccc(C(=O)N(C)C)c3)c(F)c(C)c2F)c1OC | < 5.30 | < 5.30 | 6.74 |
| CCN(CC)C(=O)c1cccc(Oc2nc(Oc3cccc(C(=N)N)c3)c(F)c(C)c2F)c1 | – | – | 6.16 |
| CCOC(=O)c1cccc(Oc2nc(Oc3cccc(C(=N)N)c3)c(F)c(C)c2F)c1 | < 5.30 | < 5.30 | 5.28 |
| CNC(=O)c1cccc(Oc2nc(Oc3cccc(C(=N)N)c3)c(F)c(C)c2F)c1 | – | – | 5.92 |
| Cc1c(F)c(Oc2cccc(C(=N)N)c2)nc(Oc2cccc(C(F)(F)F)c2)c1F | < 5.30 | – | 5.80 |
| Cc1ccc(C(=O)N(C)C)cc1Oc1nc(Oc2cccc(C(=N)N)c2)c(F)c(C)c1F | – | – | < 5.30 |
| Cc1c(F)c(Oc2cccc(C(=N)N)c2)nc(Oc2cccc(C(=O)Nc3ccccc3)c2)c1F | < 5.30 | – | < 5.30 |
| Cc1c(F)c(Oc2cccc(C(=N)N)c2)nc(Oc2ccc(O)c(C(=O)N(C)C)c2)c1F | – | – | 5.70 |
| COc1cccc(Oc2nc(Oc3cccc(C(=N)N)c3)c(F)c(C)c2F)c1 | 5.74 | – | 5.87 |
